For data set [1], the system named is asexual blood stage of Pf. Description: Pf asexual blood stage potency (Pf IC50). Type of data set: cell-based, Plasmodium falciparum. Conditions: Plasmodium falciparum. The source says: The TAPs series emerged from a high-throughput screen (HTS) of 500,000 compounds from the AstraZeneca corporate library against the asexual blood stage of Pf using a high-content image-based approach. The procedure for synthesis of compounds 1-6, 10, 11 using a scheme similar to Fig. 1 is provided in Supplementary Note 1. The initial hit provided multiple diversification points for a robust lead optimization campaign. […] Compounds with 2-pyridyl modification at the 2-amino position of pyrimidine core improved potency and solubility at the cost of potent activity against hERG and acetylcholine esterase (AChE; compounds 3-6; Table 1). […] The observed hERG and AChE selectivity improvement with 7 could be attributed to the polar nature of the pyrazole group and its role in reducing the pKa of the core pyrimidine ring. […] To assess the potential for cross-resistance, representative TAPs were screened against a panel of clinical isolates and in vitro-generated mutant strains displaying varying mechanisms of resistance to antimalarial agents currently in use and under development, respectively, (Supplementary Tables 1–3).

A further data set deals with T1, hERG (Homo sapiens, UniProt Q12809).
T1 construct: expressed in transfected cells; host or cells: CHO cells
T1 sequence (Q12809 whole entry): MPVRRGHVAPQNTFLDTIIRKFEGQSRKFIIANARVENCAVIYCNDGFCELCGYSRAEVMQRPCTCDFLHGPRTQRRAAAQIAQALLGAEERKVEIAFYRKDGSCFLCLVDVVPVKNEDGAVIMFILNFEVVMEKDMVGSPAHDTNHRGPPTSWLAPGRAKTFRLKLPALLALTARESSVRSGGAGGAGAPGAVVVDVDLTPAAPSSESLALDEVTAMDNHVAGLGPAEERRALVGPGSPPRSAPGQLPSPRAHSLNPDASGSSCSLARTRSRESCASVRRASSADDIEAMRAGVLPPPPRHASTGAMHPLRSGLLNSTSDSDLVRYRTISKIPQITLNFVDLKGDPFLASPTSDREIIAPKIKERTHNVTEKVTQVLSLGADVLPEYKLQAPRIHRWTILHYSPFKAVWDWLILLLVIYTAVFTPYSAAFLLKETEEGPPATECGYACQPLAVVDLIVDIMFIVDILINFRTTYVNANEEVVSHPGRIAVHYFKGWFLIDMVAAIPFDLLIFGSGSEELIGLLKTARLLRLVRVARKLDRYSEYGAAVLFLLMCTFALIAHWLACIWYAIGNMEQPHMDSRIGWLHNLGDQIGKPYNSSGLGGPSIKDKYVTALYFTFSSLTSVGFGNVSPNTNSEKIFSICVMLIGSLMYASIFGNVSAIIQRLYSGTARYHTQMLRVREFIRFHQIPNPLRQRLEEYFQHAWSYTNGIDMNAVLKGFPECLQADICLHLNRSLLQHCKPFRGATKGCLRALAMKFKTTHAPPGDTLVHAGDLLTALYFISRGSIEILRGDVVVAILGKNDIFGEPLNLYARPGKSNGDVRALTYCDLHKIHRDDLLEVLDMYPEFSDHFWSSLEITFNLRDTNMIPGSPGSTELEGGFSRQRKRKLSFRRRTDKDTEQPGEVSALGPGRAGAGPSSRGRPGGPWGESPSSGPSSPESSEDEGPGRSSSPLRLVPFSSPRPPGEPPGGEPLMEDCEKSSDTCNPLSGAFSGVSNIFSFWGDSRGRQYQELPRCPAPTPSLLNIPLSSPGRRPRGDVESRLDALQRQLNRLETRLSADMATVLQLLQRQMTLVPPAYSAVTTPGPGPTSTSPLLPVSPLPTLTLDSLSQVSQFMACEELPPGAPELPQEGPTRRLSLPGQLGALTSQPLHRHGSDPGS
Description: electrophysiology-based hERG assay using IonWorks HT (CHO cells). Type of data set: cell-based. The settings on record: hERG IC50. The protocol: hERG IC50 was determined in an electrophysiology-based hERG assay using IonWorks HT (CHO cells) as described earlier.
For orientation: hERG is a cardiac potassium channel; its block is linked to QT prolongation.

Data set [2] concerns the target T2, acetylcholine esterase (AChE) (Homo sapiens, UniProt P22303).
T2 construct: purchased CEREP, France (external assay service) 0363
Description: AChE enzyme activity assay (CEREP). Type of data set: biochemical. The settings on record: read-out: AChE IC50. Here is the method: (§1) An in vitro pharmacological profiling panel was specifically designed for the detection of potential high- risk clinical adverse drug reactions. The panel comprised of 26 diverse targets (6 enzymes, 2 transporters, 9 G-protein-coupled receptors (GPCRs), 5 ion channels along with hERG, M2, alpha1A and AchE) and was conduced externally by CEREP, France […]. […] Detailed methodology for in vitro pharmacological profiling assays provided by CEREP can be found at http://www.cerep.fr, with specific reference to the AChE (cat. no. 0363), Muscarinic M1 receptor (cat. no. 0091) and Adrenergic α1A receptor (cat. no. 2338) assays. For enzyme and kinase assays, the results were expressed as a percent inhibition of control-specific activity obtained in the presence of the test compound. The IC50 values (concentration causing a half-maximal inhibition of control-specific activity) and Hill coefficients (nH) were determined by nonlinear regression analysis of the inhibition/concentration–response curves using Hill equation curve fitting as described earlier.

The target in another data set is T3, Muscarinic M2 receptor (Homo sapiens, UniProt P08172).
T3 construct: purchased CEREP, France (external assay service)
T3 sequence (P08172 1-466): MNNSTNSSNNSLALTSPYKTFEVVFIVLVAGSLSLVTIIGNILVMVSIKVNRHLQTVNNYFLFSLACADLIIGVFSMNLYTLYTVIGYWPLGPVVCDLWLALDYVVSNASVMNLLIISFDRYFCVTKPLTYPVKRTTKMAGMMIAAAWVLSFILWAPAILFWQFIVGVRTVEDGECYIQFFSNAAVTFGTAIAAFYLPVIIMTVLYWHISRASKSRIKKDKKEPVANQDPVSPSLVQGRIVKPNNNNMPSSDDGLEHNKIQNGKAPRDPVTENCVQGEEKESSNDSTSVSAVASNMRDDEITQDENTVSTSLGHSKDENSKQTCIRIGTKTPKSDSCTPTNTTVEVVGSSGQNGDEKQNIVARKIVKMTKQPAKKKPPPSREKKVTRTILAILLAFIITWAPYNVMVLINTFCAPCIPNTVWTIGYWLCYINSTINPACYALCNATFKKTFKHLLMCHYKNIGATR
Kind of data set: Muscarinic M2 receptor radioligand binding (CEREP). The protocol: as §1
(§2) For radioligand binding assays, the results are expressed as % inhibition of control-specific binding obtained in the presence of the test compounds. The IC50 values (concentration causing a half-maximal inhibition of control-specific binding) and Hill coefficients (nH) were determined by nonlinear regression analysis of the competition curves generated with mean replicate values using Hill equation curve fitting. The inhibition constants (Ki) were subsequently calculated by applying the Cheng Prusoff equation[38].

In the next data set the target is T4, α1A adrenoceptor (Homo sapiens, UniProt P35348).
T4 construct: purchased CEREP, France (external assay service) 2338
T4 sequence (P35348 1-466): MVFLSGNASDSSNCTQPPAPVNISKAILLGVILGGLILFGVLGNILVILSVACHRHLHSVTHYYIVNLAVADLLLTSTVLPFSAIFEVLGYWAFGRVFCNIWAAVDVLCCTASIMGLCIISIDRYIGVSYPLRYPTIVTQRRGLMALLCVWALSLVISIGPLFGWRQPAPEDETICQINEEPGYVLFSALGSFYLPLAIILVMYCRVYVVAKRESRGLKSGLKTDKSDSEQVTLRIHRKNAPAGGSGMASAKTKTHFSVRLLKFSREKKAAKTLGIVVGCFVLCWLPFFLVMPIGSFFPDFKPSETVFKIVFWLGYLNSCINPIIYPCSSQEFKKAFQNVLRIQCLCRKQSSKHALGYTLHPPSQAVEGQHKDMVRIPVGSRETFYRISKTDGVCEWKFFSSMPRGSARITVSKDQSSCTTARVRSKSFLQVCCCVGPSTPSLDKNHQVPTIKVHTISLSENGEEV
Kind of data set: α1A adrenoceptor radioligand binding (CEREP). The protocol:
as §1, §2

The nature of data set [3]: Rat blood PK, IV and oral. Type of data set: in vivo. Conditions: Wistar, rat, whole blood, oral, 10 mg/kg, rat; read-out: Rat F (bioavailability). The protocol:
Blood samples were collected at 0.083, 0.25, 0.5, 1, 2, 4, 8, 23, 32, 48, 55 and 72 hours after an IV dose of 2 mg/kg or an oral dose of 10 mg/kg. Oral administration was done using oral gavage at a maximum dose volume of 10 mL/kg. Solution formulation containing 10% NMP, 20% DMA in dextrose / normal saline was used for IV administration and a suspension in 0.5% w/v HPMC with 0.1% v/v Tween 80 was used for oral administration. 25 µl of blood samples were mixed with 100 µL of Milli-Q water and vortexed for 5 minutes in the plate shaker at a speed of 900 rpm to ensure complete hemolysis. Proteins were precipitated by adding 125 µL of cold acetonotrile containing internal standard. After extraction on a plate shaker for 10 minutes at 900 rpm, the plate was centrifuged at 4000 rpm for 20 minutes. The supernatant (180 µL) was transferred to another plate and 2.5 µL of Zinc sulphate (200 mM) was added to separate the heme fraction. This mixture was centrifuged and 10 µL of the supernatant was analyzed by LC-MS/MS. […]

The next data set relates to Pf 7G8. Kind of data set: microbe, parasite or virus in culture. In kind it is cell-based. The settings on record: Plasmodium falciparum. The text has this: (§3) tested in duplicate from two independent experiments using a SYBR-Green based assay2.
(§4) (1 picture or pasted object on this page, not shown here)

For a further data set, the system named is Pf DD2. Kind of data set: microbe, parasite or virus in culture. Type of data set: cell-based. Conditions: Plasmodium falciparum.
From the text: as §3, §4

The subject of a further data set is Pf K1. Description: microbe, parasite or virus in culture. In kind it is cell-based. The settings on record: Plasmodium falciparum.
From the text: as §3, §4

Another data set concerns Pf NF54. Description: microbe, parasite or virus in culture. In kind it is cell-based. The settings on record: Plasmodium falciparum.
From the text: as §3, §4

The test system of a further data set is Pf SB1. Description: microbe, parasite or virus in culture. Type of data set: cell-based. Conditions: Plasmodium falciparum.
From the text: as §3, §4

For another data set, the system named is Pf W2. Description: microbe, parasite or virus in culture. In kind it is cell-based. Conditions: Plasmodium falciparum.
From the text: as §3, §4

A short description of another data set: Caco2 permeability. The settings on record: human, Caco-2. Background: Passage across Caco-2 layers is used to estimate intestinal permeability.

The record followed here is PMC4389225, “Triaminopyrimidine is a fast-killing and long-acting antimalarial clinical candidate” (Nature Communications, 2015).

T2 sequence (P22303 32-614): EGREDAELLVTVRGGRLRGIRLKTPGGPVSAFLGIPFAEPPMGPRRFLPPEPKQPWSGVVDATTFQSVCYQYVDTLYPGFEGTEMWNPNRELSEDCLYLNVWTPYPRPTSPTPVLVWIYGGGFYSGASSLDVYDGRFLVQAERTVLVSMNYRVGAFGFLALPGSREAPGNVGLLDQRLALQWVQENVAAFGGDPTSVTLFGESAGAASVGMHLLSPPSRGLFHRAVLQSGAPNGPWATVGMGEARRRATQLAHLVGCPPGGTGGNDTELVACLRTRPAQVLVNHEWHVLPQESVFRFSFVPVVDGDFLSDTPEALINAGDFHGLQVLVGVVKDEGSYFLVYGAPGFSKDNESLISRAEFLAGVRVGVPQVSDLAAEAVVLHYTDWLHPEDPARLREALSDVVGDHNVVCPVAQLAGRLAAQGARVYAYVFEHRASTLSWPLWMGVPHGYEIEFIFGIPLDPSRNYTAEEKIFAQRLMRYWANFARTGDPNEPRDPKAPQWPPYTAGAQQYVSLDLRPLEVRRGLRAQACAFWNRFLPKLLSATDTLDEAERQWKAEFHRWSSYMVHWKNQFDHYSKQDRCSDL

A word on the IC50: it is the concentration at which inhibition is half-maximal. What is called bioavailability is the share of a dose that reaches the circulation, judged against a reference dose that is usually intravenous. By Papp A→B is commonly meant the apparent permeability from the apical to the basolateral side of a cell layer. As to `CCc1cc(Nc2ncc(N3CCN[C@H](C)C3)c(Nc3cc(C)n(C)n3)n2)nc(C)c1F.Cl.Cl` [compound 8, (R)-N4-(1,5-dimethyl-1H-pyrazol-3-yl)-N2-(4-ethyl-5-fluoro-6-methylpyridin-2-yl)-5-(3-methylpiperazin-1-yl)pyrimidine-2,4-diamine dihydrochloride], the IC50 in data set [1] is 25 nM; at hERG it was > 30000 nM; in [2], 30000 nM; on Muscarinic M2 receptor, 3100 nM; on α1A adrenoceptor, 1300 nM; in the data set with Pf 7G8, 74.4 ± 17 nM. The IC50 stood at 38.3 ± 1.5 nM in the data set with Pf DD2; 64.7 ± 12 nM with Pf K1; 57.2 ± 20 nM in the data set with Pf NF54; 34.7 ± 3 nM in the data set on Pf SB1; 78.8 ± 7 nM in the data set on Pf W2. Further, in [3], the bioavailability was 31%. The Papp A→B in “Caco2 permeability” amounted to 4 ×10⁻⁶ cm/s.
